PMC6978316, “Development of chimeric peptides to facilitate the neutralisation of lipopolysaccharides during bactericidal targeting of multidrug-resistant Escherichia coli” (Communications Biology, 2020)
Like-named read-outs stand apart in the source and are kept apart here. Where a SMILES comes first, the peptide text is derived from it. Bridges are numbered along the chain shown (N, C = ends).

Tests used:
[1] = tested on: TNF-α, IL-6 and IL-10 in LPS-stimulated RAW 264.7 cells; experiment: Cytokines in LPS-stimulated macrophages (ELISA); type: cell-based, mouse; design: unit not given here
Procedure: Macrophages RAW 264.7 were incubated with LPS (0.1 and 1 μg per ml) that was dissolved in serum-free DMEM medium, and then were treated with A6, G6, N6, or PMB (20 μM) alone in 24-well plates (2.5 × 10^5 cells per well). The cells incubated with serum-free DMEM and LPS were used as a control. After treatment for 2 h, the supernatants were collected and assessed for TNF-α, IL-6, and IL-10 by using the ELISA kits in the Jiaxuan Biotech. Co. Ltd. (Beijing, China).
73 Supplementary Figure 15. Effects of SCPs on cytokines in RAW 264.7 ells. Cells were incubated with 0.1 μg per
74 ml (a) or 1 μg per ml (b) LPS and 20 μM A6, G6, N6 or PMB for 2 h. The levels of TNF-α, IL-6 and IL-10 in
75 supernatants were measured using ELISA. The data are given as the mean ± SD (n = 3 independent experiments).
76 Different lower case letters indicate a significant difference between two groups (p < 0.05).
(§1) (1 picture or pasted object on this page, not shown here)

MDR E. coli CVCC195 = experiment: Sepsis mouse model, survival after lethal E. coli challenge; type: in vivo, ICR mice; conditions: mice, E. coli 5 × 10^8 CFU i.p.; 0.25 μmol per kg; 7 d; n = 5
Procedure: The mouse survival was recorded for 7 d. The mice injected with LPS or saline were used as negative or blank controls, respectively.

trypsin = type: in vitro ADME
pepsin = type: in vitro ADME
[2] = tested on: 1:1 mixture of E. coli CVCC195 and S. aureus ATCC43300; type: cell-based, Escherichia coli; Staphylococcus aureus; conditions: Mean
Procedure: The selectivity of A6, G6, and N6 against Gram-negative and Gram-positive bacteria was determined using the mixed-culture bactericidal kinetics assay, as described in the Supplementary Information.
27 Supplementary Figure 6. Killing selectivity of peptides. A 1:1 mixture of E. coli (Ec) and S. aureus
28 (Sa) was treated with A6 (16 μg per ml), G6 (16 μg per ml) or N6 (2 μg per ml) for 1, 3 and 5 min,
29 respectively; survivors were counted in MH plates. The change in relative ratio of E. coli to S. aureus
30 (Ec/Sa) after treatment with A6, G6 or N6 is shown.
31 independent experiments).
as §1
102 Supplementary Methods
103 Mixed-culture bactericidal kinetics of SCPs-A6 and G6. The mid-exponential phage E. coli
104 CVCC195 and S. aureus ATCC43300 cultures were diluted to 2 × 10^5 CFU per ml, mixed (1:1) and
105 added into the 96-well plates. A6, G6 or N6 were added into each well of plates to final concentration
106 of 16 (A6 and G6) or 2 (N6) μg per ml in a 200-μl total volume. An aliquot was removed at 1, 3 and 5
107 min, respectively, and survivors were counted on MH solid plates1–3. […]

[3] = Biodistribution of FITC-labeled peptides (in vivo fluorescence imaging); conditions: nude mice, FITC-labeled peptide 5 mg per kg intraperitoneally
Procedure: The nude mice were intraperitoneally injected with 5 mg per kg FITC-labeled A6, G6, and N6, respectively. Free FITC was used as a negative control.

[4] = tested on: S. aureus, Enterococcus faecalis, and Streptococcus suis; type: cell-based
Procedure: (§2) The MIC values of A6, G6, the parental peptides (N6 and LBP14), LBPN6, scramble controls (N6CK, A6CK, and G6CK), and PMB were determined by the microtiter broth dilution method. The tested strains included Gram-negative bacteria, Gram-positive bacteria, and fungi and were cultured to the logarithmic growth phase, diluted to 10^5 CFU per ml, and added into 96-well plates (90 μl per well). Peptides or antibiotic were diluted with PBS by 2-fold dilution and were added to each well (10 μl per well). Polymyxin B (PMB) and PBS were used as the positive and negative control, respectively. […] All experiments were repeated three times.

in vitro = conditions: for half-life / remaining at 2 h / remaining at 1 h / remaining at 4 h: mouse, serum; for remaining at 2 h / remaining at 1 h / remaining at 4 h / peptide remained intact in serum: mice serum, 37 °C, RP-HPLC
Procedure: The thermal, pH and enzyme stability of A6 and G6 were evaluated against MDR E. coli CVCC195 using a previous method with minor revisions. The N6, A6, and G6 solutions were treated at different temperatures (20–100 °C) for 1 h, dissolved and incubated at different pH values (2–10) for 3 h, or incubated with trypsin or pepsin for 4 h. The inhibition zone diameters were measured after incubation at 37 °C for 18–24 h. The peptides were dissolved in H2O or mice serum at 37 °C to detect their serum stability and samples were removed at different time points to determine their residual activity by the inhibition zone or reverse-phase high-performance liquid chromatography (RP-HPLC) methods[62],[63].

[5] = tested on: Streptococcus suis CVCC606; experiment: MIC, microtiter broth dilution; type: cell-based; conditions: 37 °C, 16–18 h, three independent experiments
Procedure: as §2

[6] = tested on: Staphylococcus aureus ATCC43300; experiment: MIC, microtiter broth dilution; type: cell-based; conditions: 37 °C, 16–18 h, three independent experiments
Procedure: as §2

[7] = tested on: Enterococcus faecalis CVCC3936; experiment: MIC, microtiter broth dilution; type: cell-based; conditions: 37 °C, 16–18 h, three independent experiments
Procedure: as §2

[8] = tested on: Pseudomonas aeruginosa CICC10419; experiment: MIC, microtiter broth dilution; type: cell-based; conditions: 37 °C, 16–18 h, three independent experiments
Procedure: as §2

E. coli CVCC1515 = experiment: MIC, microtiter broth dilution; type: cell-based, Escherichia coli; conditions: 37 °C, 16–18 h, three independent experiments
Procedure: as §2

S. pullorum CVCC533 = experiment: MIC, microtiter broth dilution; type: cell-based, Salmonella pullorum; conditions: 37 °C, 16–18 h, three independent experiments
Procedure: as §2

[9] = RAW 264.7 cells incubated with 0.1 μg per ml LPS
[10] = RAW 264.7 cells incubated with 1 μg per ml LPS
[11] = peptide remaining in serum, Mean, 1 h, mean of n = 3 (source data Fig. 2f)
[12] = peptide remaining in serum, Mean, 2 h, mean of n = 3 (source data Fig. 2f)
[13] = peptide remaining in serum, Mean, mean of n = 3 (source data Fig. 2f)

Compound	IL-6 Mean [1, 9]	IL-10 Mean [1, 9]	TNFα Mean [1, 9]	IL-6 Mean [1, 10]	IL-10 Mean [1, 10]	TNFα Mean [1, 10]	antibacterial activity after trypsin (inhibition zone diameter), Mean (trypsin)	antibacterial activity after pepsin (inhibition zone diameter), Mean (pepsin)	antibacterial activity without enzyme (inhibition zone diameter), Mean (pepsin)	killing selectivity of peptides ([2]; time 0 min)	killing selectivity of peptides ([2]; time 1 min)	killing selectivity of peptides ([2]; time 3 min)	killing selectivity of peptides ([2]; time 5 min)	time after injection at which the fluorescence disappeared / peptide was excreted [3] [h]	MICs against S. aureus, Enterococcus faecalis, and Streptococcus suis [4]	half-life (in vitro) [h]	remaining at 1 h (in vitro; [11]) [%]	remaining at 2 h (in vitro; [12]) [%]	remaining at 4 h (in vitro; [13]) [%]	further results
polymyxin B [PMB]	311.767	122.2	546.867	278.7	116.9	447.633														survival rate (MDR E. coli CVCC195): 100%
H-RVQGRWKVRASFFKEAAAKEAAAKGFAWNVCVYRNGVRVCHRRAN-OH (disulfide 31-40) [A6]	246.9	89.8	410.667	216.667	77.3667	355.9	0	1.623	1.456	0.9569	0.7697	0.8015	0.5904	48	greater than 3.52 μM	< 2	27	7.18	4.77	remaining at 2 h (in vitro; peptide remained intact in serum, 2 h): 7%
CC(C)[C@@H]1NC(=O)CNC(=O)[C@H](CC(N)=O)NC(=O)[C@H](CCCNC(=N)N)NC(=O)[C@H](Cc2ccc(O)cc2)NC(=O)[C@H](C(C)C)NC(=O)[C@@H](NC(=O)[C@@H](NC(=O)[C@H](CC(N)=O)NC(=O)[C@H](Cc2c[nH]c3ccccc23)NC(=O)[C@H](C)NC(=O)[C@H](Cc2ccccc2)NC(=O)CN)C(C)C)CSSC[C@@H](C(=O)N[C@@H](Cc2c[nH]cn2)C(=O)N[C@@H](CCCNC(=N)N)C(=O)N[C@@H](CCCNC(=N)N)C(=O)N[C@@H](C)C(=O)N[C@@H](CC(N)=O)C(=O)O)NC(=O)[C@H](C(C)C)NC(=O)[C@H](CCCNC(=N)N)NC1=O [N6] (H-GFAWNVCVYRNGVRVCHRRAN-OH; disulfide 7-16; N-terminus and C-terminus assumed)	279.833	106.233	479.8	303.4	118.033	495.967				0.9569	0.9093	0.8204	0.6732							
CC(C)[C@@H]1NC(=O)CNC(=O)[C@H](CC(N)=O)NC(=O)[C@H](CCCNC(=N)N)NC(=O)[C@H](Cc2ccc(O)cc2)NC(=O)[C@H](C(C)C)NC(=O)[C@@H](NC(=O)[C@@H](NC(=O)[C@H](CC(N)=O)NC(=O)[C@H](Cc2c[nH]c3ccccc23)NC(=O)[C@H](C)NC(=O)[C@H](Cc2ccccc2)NC(=O)CNC(=O)[C@H](CO)NC(=O)CNC(=O)CNC(=O)CNC(=O)CNC(=O)[C@H](CCCCN)NC(=O)[C@H](Cc2ccccc2)NC(=O)[C@H](Cc2ccccc2)NC(=O)[C@H](CO)NC(=O)[C@H](C)NC(=O)[C@H](CCCNC(=N)N)NC(=O)[C@@H](NC(=O)[C@H](CCCCN)NC(=O)[C@H](Cc2c[nH]c3ccccc23)NC(=O)[C@H](CCCNC(=N)N)NC(=O)CNC(=O)[C@H](CCC(N)=O)NC(=O)[C@@H](NC(=O)[C@@H](N)CCCNC(=N)N)C(C)C)C(C)C)C(C)C)CSSC[C@@H](C(=O)N[C@@H](Cc2c[nH]cn2)C(=O)N[C@@H](CCCNC(=N)N)C(=O)N[C@@H](CCCNC(=N)N)C(=O)N[C@@H](C)C(=O)N[C@@H](CC(N)=O)C(=O)O)NC(=O)[C@H](C(C)C)NC(=O)[C@H](CCCNC(=N)N)NC1=O [G6] (H-RVQGRWKVRASFFKGGGGSGFAWNVCVYRNGVRVCHRRAN-OH; disulfide 26-35)	280.633	106.633	481.5	352.733	142.667	599.567	0	1.607	1.439	0.9569	0.5118	0.1311		48	greater than 3.52 μM	< 2	68.6	29.6	11.2	MIC [5]: 16 μg per ml; MIC [6]: 16 μg per ml; MIC [7]: 16 μg per ml; MIC [8]: 16 μg per ml; MIC (E. coli CVCC1515): 16 μg per ml; MIC (S. pullorum CVCC533): 16 μg per ml; peptide remained intact in serum (in vitro; 1 h): 68.5%; peptide remained intact in serum (in vitro; 2 h): 29.5%
